# From patent publication US11078216B2, “Bisaryl amides as NRF2 activators” (GLAXOSMITHKLINE INTELLECTUAL PROPERTY DEVELOPMENT LIMITED, priority 2016, dated 2021)
# System: NRF2 (NQO1 activity as marker for NRF2 activation), BEAS-2B cells
# Assay: BEAS-2B NQO1 MTT Assay
# Type: cell-based
# Conditions: Homo sapiens, EC50 of NQO1 specific activity induction, 48 hours incubation, read-out: EC50
# How it was run: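 As a marker of NRF2 activation, NQO1 specific activity was read from the rate of absorbance change at 570 nm in MTT cocktail over 30 minutes. Lysates came from BEAS-2B cells treated for 48 hours at 37° C, and EC50 was derived by 3-parameter fitting.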
row,SMILES,EC50 [nM]
1,"CC[C@@H]1CN(Cc2cc([C@H](CC(=O)Nc3cccnn3)c3ccc4c(nnn4CC)c3C)ccc2C)S(=O)(=O)c2cccnc2O1 [Example 122, (S)-3-(3-(((R)-4-Ethyl-1,1-dioxido-3,4-dihydro-2H-pyrido[2,3-b][1,4,5]oxathiazepin-2-yl)methyl)-4-methylphenyl)-3-(1-ethyl-4-methyl-1H-benzo[d][1,2,3]triazol-5-yl)-N-(pyridazin-3-yl)propanamide]",100 to 1000
2,"CC[C@@H]1CN(Cc2cc([C@H](CC(=O)Nc3cnc(OC)nc3)c3ccc4c(nnn4CC)c3C)ccc2C)S(=O)(=O)c2cccnc2O1 [Example 123, (S)-3-(3-(((R)-4-Ethyl-1,1-dioxido-3,4-dihydro-2H-pyrido[2,3-b][1,4,5]oxathiazepin-2-yl)methyl)-4-methylphenyl)-3-(1-ethyl-4-methyl-1H-benzo[d][1,2,3]triazol-5-yl)-N-(2-methoxypyrimidin-5-yl)propanamide]",10 to 100
3,"CCOCCOc1ncc(NC(=O)C(C)(C)[C@@H](c2ccc(C)c(CN3C[C@@H](CC)Oc4ncccc4S3(=O)=O)c2)c2ccc3c(nnn3CC)c2C)cn1 [Example 124, (S)—N-(2-(2-Ethoxyethoxy)pyrimidin-5-yl)-3-(3-(((R)-4-ethyl-1,1-dioxido-3,4-dihydro-2H-pyrido[2,3-b][1,4,5]oxathiazepin-2-yl)methyl)-4-methylphenyl)-3-(1-ethyl-4-methyl-1H-benzo[d][1,2,3]triazol-5-yl)-2,2-dimethylpropanamide]",1 to 10
4,"CC[C@@H]1CN(Cc2cc([C@H](CC(=O)Nc3cnc(N4CCCCC4)nc3)c3ccc4c(nnn4CC)c3C)ccc2C)S(=O)(=O)c2cccnc2O1 [Example 125, (S)-3-(3-(((R)-4-Ethyl-1,1-dioxido-3,4-dihydro-2H-pyrido[2,3-b][1,4,5]oxathiazepin-2-yl)methyl)-4-methylphenyl)-3-(1-ethyl-4-methyl-1H-benzo[d][1,2,3]triazol-5-yl)-N-(2-(piperidin-1-yl)pyrimidin-5-yl)propanamide]",10 to 100
5,"CC[C@@H]1CN(Cc2cc([C@H](CC(=O)Nc3cnc(NC)nc3)c3ccc4c(nnn4CC)c3C)ccc2C)S(=O)(=O)c2cccnc2O1 [Example 126, (S)-3-(3-(((R)-4-Ethyl-1,1-dioxido-3,4-dihydro-2H-pyrido[2,3-b][1,4,5]oxathiazepin-2-yl)methyl)-4-methylphenyl)-3-(1-ethyl-4-methyl-1H-benzo[d][1,2,3]triazol-5-yl)-N-(2-(methylamino)pyrimidin-5-yl)propanamide]",100 to 1000
6,"CC[C@@H]1CN(Cc2cc([C@H](CC(=O)Nc3cnc(NC(CO)CO)nc3)c3ccc4c(nnn4CC)c3C)ccc2C)S(=O)(=O)c2cccnc2O1 [Example 127, (S)—N-(2-((1,3-Dihydroxypropan-2-yl)amino)pyrimidin-5-yl)-3-(3-(((R)-4-ethyl-1,1-dioxido-3,4-dihydro-2H-pyrido[2,3-b][1,4,5]oxathiazepin-2-yl)methyl)-4-methylphenyl)-3-(1-ethyl-4-methyl-1H-benzo[d][1,2,3]triazol-5-yl)propanamide]",1000 to 10000
7,"CC[C@@H]1CN(Cc2cc([C@@H](c3ccc4c(nnn4CC)c3C)C(C)(C)C(=O)Nc3cnc(NC(CO)CO)nc3)ccc2C)S(=O)(=O)c2cccnc2O1 [Example 128, (S)-N-(2-((1,3-Dihydroxypropan-2-yl)amino)pyrimidin-5-yl)-3-(3-(((R)-4-ethyl-1,1-dioxido-3,4-dihydro-2H-pyrido[2,3-b][1,4,5]oxathiazepin-2-yl)methyl)-4-methylphenyl)-3-(1-ethyl-4-methyl-1H-benzo[d][1,2,3]triazol-5-yl)-2,2-dimethylpropanamide]",100 to 1000
8,"CC[C@@H]1CN(Cc2cc([C@@H](c3ccc4c(nnn4CC)c3C)C(C)(C)C(=O)Nc3cnc(OCC(N)CO)nc3)ccc2C)S(=O)(=O)c2cccnc2O1 (stereo partly drawn) [Example 129, (3S)-N-(2-(2-Amino-3-hydroxypropoxy)pyri-midin-5-yl)-3-(3-(((R)-4-ethyl-1,1-dioxido-3,4-dihydro-2H-pyrido[2,3-b][1,4,5]oxathiazepin-2-yl)methyl)-4-methylphenyl)-3-(1-ethyl-4-methyl-1H-benzo[d][1,2,3]triazol-5-yl)-2,2-dimethylpropanamide]",100 to 1000
9,"CC[C@@H]1CN(Cc2cc([C@@H](c3ccc4c(nnn4CC)c3C)C(C)(C)C(=O)Nc3cnc(N(C)C)nc3)ccc2C)S(=O)(=O)c2cccnc2O1 [Example 130, (S)-N-(2-(Dimethylamino)pyri-midin-5-yl)-3-(3-(((R)-4-ethyl-1,1-dioxido-3,4-dihydro-2H-pyrido[2,3-b][1,4,5]oxathiazepin-2-yl)methyl)-4-methylphenyl)-3-(1-ethyl-4-methyl-1H-benzo[d][1,2,3]triazol-5-yl)-2,2-dimethylpropanamide]",1 to 10
10,"CC[C@@H]1CN(Cc2cc([C@@H](c3ccc4c(nnn4CC)c3C)C(C)(C)C(=O)Nc3cnc(S(C)(=O)=O)nc3)ccc2C)S(=O)(=O)c2cccnc2O1 [Example 131, (S)-3-(3-(((R)-4-Ethyl-1,1-dioxido-3,4-dihydro-2H-pyrido[2,3-b][1,4,5]oxathiazepin-2-yl)methyl)-4-methylphenyl)-3-(1-ethyl-4-methyl-1H-benzo[d][1,2,3]triazol-5-yl)-2,2-dimethyl-N-(2-(methylsulfonyl)pyrimidin-5-yl)propanamide]",10 to 100
11,"CC[C@@H]1CN(Cc2cc([C@@H](c3ccc4c(nnn4CC)c3C)C(C)(C)NC(C)=O)ccc2C)S(=O)(=O)c2ccccc2O1 [Example 132, N—((S)-1-(3-(((R)-4-Ethyl-1,1-dioxido-3,4-dihydro-2H-benzo[b][1,4,5]oxathiazepin-2-yl)methyl)-4-methylphenyl)-1-(1-ethyl-4-methyl-1H-benzo[d][1,2,3]triazol-5-yl)-2-methylpropan-2-yl)acetamide]",10 to 100
12,"CC[C@@H]1CN(Cc2cc([C@@H](c3ccc4c(nnn4CC)c3C)C(C)(C)NC(=O)CCCNC(C)=O)ccc2C)S(=O)(=O)c2ccccc2O1 [Example 133, 4-Acetamido-N-((S)-1-(3-(((R)-4-ethyl-1,1-dioxido-3,4-dihydro-2H-benzo[b][1,4,5]oxathiazepin-2-yl)methyl)-4-methylphenyl)-1-(1-ethyl-4-methyl-1H-benzo[d][1,2,3]triazol-5-yl)-2-methylpropan-2-yl)butanamide]",1000 to 10000
13,"CC[C@@H]1CN(Cc2cc([C@@H](c3ccc4c(nnn4CC)c3C)C(C)(C)NC(=O)C3CCOC3)ccc2C)S(=O)(=O)c2ccccc2O1 (stereo partly drawn) [Example 134, N-((S)-1-(3-(((R)-4-Ethyl-1,1-dioxido-3,4-dihydro-2H-benzo[b][1,4,5]oxathiazepin-2-yl)methyl)-4-methylphenyl)-1-(1-ethyl-4-methyl-1H-benzo[d][1,2,3]triazol-5-yl)-2-methylpropan-2-yl)tetrahydrofuran-3-carboxamide]",10 to 100
14,"CC[C@@H]1CN(Cc2cc([C@@H](c3ccc4c(nnn4CC)c3C)C(C)(C)NC(=O)C3CCCOC3)ccc2C)S(=O)(=O)c2ccccc2O1 (stereo partly drawn) [Example 135, N-((S)-1-(3-(((R)-4-Ethyl-1,1-dioxido-3,4-dihydro-2H-benzo[b][1,4,5]oxathiazepin-2-yl)methyl)-4-methylphenyl)-1-(1-ethyl-4-methyl-1H-benzo[d][1,2,3]triazol-5-yl)-2-methylpropan-2-yl)tetrahydro-2H-pyran-3-carboxamide]",10 to 100
15,"CC[C@@H]1CN(Cc2cc([C@@H](c3ccc4c(nnn4CC)c3C)C(C)(C)NC(=O)c3ccco3)ccc2C)S(=O)(=O)c2ccccc2O1 [Example 136, N-((S)-1-(3-(((R)-4-Ethyl-1,1-dioxido-3,4-dihydro-2H-benzo[b][1,4,5]oxathiazepin-2-yl)methyl)-4-methylphenyl)-1-(1-ethyl-4-methyl-1H-benzo[d][1,2,3]triazol-5-yl)-2-methylpropan-2-yl)furan-2-carboxamide]",100 to 1000
16,"CC[C@@H]1CN(Cc2cc([C@@H](c3ccc4c(nnn4CC)c3C)C(C)(C)NC(=O)c3ccoc3)ccc2C)S(=O)(=O)c2ccccc2O1 [Example 137, N-((S)-1-(3-(((R)-4-Ethyl-1,1-dioxido-3,4-dihydro-2H-benzo[b][1,4,5]oxathiazepin-2-yl)methyl)-4-methylphenyl)-1-(1-ethyl-4-methyl-1H-benzo[d][1,2,3]triazol-5-yl)-2-methylpropan-2-yl)furan-3-carboxamide]",10 to 100
17,"CC[C@@H]1CN(Cc2cc([C@@H](c3ccc4c(nnn4CC)c3C)C(C)(C)NC(=O)c3ccns3)ccc2C)S(=O)(=O)c2ccccc2O1 [Example 138, N-((S)-1-(3-(((R)-4-Ethyl-1,1-dioxido-3,4-dihydro-2H-benzo[b][1,4,5]oxathiazepin-2-yl)methyl)-4-methylphenyl)-1-(1-ethyl-4-methyl-1H-benzo[d][1,2,3]triazol-5-yl)-2-methylpropan-2-yl)isothiazole-5-carboxamide]",10 to 100
18,"CC[C@@H]1CN(Cc2cc([C@@H](c3ccc4c(nnn4CC)c3C)C(C)(C)NC(=O)c3ccc(=O)n(C)c3)ccc2C)S(=O)(=O)c2ccccc2O1 [Example 139, N-((S)-1-(3-(((R)-4-Ethyl-1,1-dioxido-3,4-dihydro-2H-benzo[b][1,4,5]oxathiazepin-2-yl)methyl)-4-methylphenyl)-1-(1-ethyl-4-methyl-1H-benzo[d][1,2,3]triazol-5-yl)-2-methylpropan-2-yl)-1-methyl-6-oxo-1,6-dihydropyridine-3-carboxamide]",10 to 100
19,"CC[C@@H]1CN(Cc2cc([C@@H](c3ccc4c(nnn4CC)c3C)C(C)(C)NC(=O)c3cccn(C)c3=O)ccc2C)S(=O)(=O)c2ccccc2O1 [Example 140, N-((S)-1-(3-(((R)-4-Ethyl-1,1-dioxido-3,4-dihydro-2H-benzo[b][1,4,5]oxathiazepin-2-yl)methyl)-4-methylphenyl)-1-(1-ethyl-4-methyl-1H-benzo[d][1,2,3]triazol-5-yl)-2-methylpropan-2-yl)-1-methyl-2-oxo-1,2-dihydropyridine-3-carboxamide]",10 to 100
